From publication PMC6024615, “Effect of Biliary Drainage on the Toxicity and Toxicokinetics of Amanita exitialis in Beagles” (Toxins, 2018)
Where two headings read alike, the source gives them in different places. Marks after values point to notes of the source that are not given here. *1 amine or outer side, *2 acyl side, *3 side chain or, on linkers, in order; H or OH if unused. Where a SMILES comes first, the peptide text is derived from it. Bridges are numbered along the chain shown (N, C = ends). [ ]: non-standard residue; d: D form. Trp(2-yl) = O=C([C@H](Cc1c([*:3])[nH]c2ccccc12)N[*:1])[*:2]; Leu(4R-OH,5-OH) = C[C@](O)(CO)C[C@H](N)C(=O)O; dAsp(3S-OH) = N[C@@H](C(=O)O)[C@H](O)C(=O)O; cisHyp = O=C(O)[C@@H]1C[C@H](O)CN1

Test: Peptide toxins in the blood / toxicokinetics in beagles with biliary drainage
Format: in vivo, beagle dogs
Design: Dose normalized AUC (0–∞) / Dose normalized Cmax: unit not given here
Conditions: for T1/2 / AUC (0–∞) / CL/F / Cmax / Dose normalized AUC (0–∞) / Dose normalized Cmax / MRT (0–∞) / Tmax / Vd/F: biliary drainage, plasma, mean ± SD; for T1/2: UPLC-ESI-MS/MS; for time at which toxins were detected in plasma after ingestion: beagles with biliary drainage, oral Amanita exitialis; for Vd/F: male, beagle, dog, read-out: Vz/F
Protocol: The study was approved by National Institute of Occupational Health and Poison Control review board for animal experiments. Twenty-four male beagles (age, 8–10 months; weight, 10 ± 1 kg) were obtained from Beijing Institute of Xieerxin Biology Resource (Beijing, China). They were randomly divided into four groups of six animals each: control, biliary drainage, and 20 and 60 mg/kg with biliary drainage groups. The biliary drainage operation was conducted in all groups barring the control group. The dogs were dressed in homemade underwear, coats, and Elizabeth circles for a week to ensure pre-experimental acclimatization (Figure S8a–c). After determining the baseline values for biochemical indicators, the dogs were fasted for 24 h but received water ad libitum. They were anesthetized by intravenous administration of pentobarbital sodium (3%, 1 mL/kg) during the surgery. A temperature of 38–39 °C was maintained with a warming mat. After skin preservation and sterilization, the abdominal cavity was opened through the central abdomen. The abdomen was explored and blunt dissection of the common bile duct was performed (Figure S8d). The common bile duct and its branches were ligated from the intestinal side. A 7.0-Fr drainage catheter (COOK, Bloomington, IN, USA) was percutaneously inserted into the gallbladder, and a medical drainage bag was connected to the drainage catheter coming out of the abdominal cavity. Each opened layer, including the peritoneum, abdominal wall muscle, and skin, was closed with suture. The operative incision was protected with sterile gauze and a bandage, and the dogs were dressed in homemade underwear, coats, and Elizabeth circles. The drainage bag was placed in the pocket of the coat (Figure S8e). After the anesthetic wore off, the dogs were placed in cages, and food and water were provided ad libitum. The operative incision was sterilized with iodophor twice a day until stitches were removed six days after surgery. The drainage bag was replaced every day. On the eighth day after surgery, the 20 and 60 mg/kg with biliary drainage groups were orally administered a lyophilized powder of Amanita exitialis in starch capsules. In control and bile drainage group, the beagle dogs were fed with empty capsules. Immediately after dosing, the animals were placed in their cages, and food and water were provided ad libitum. Dogs were sacrificed with an overdose of sodium pentobarbital at the end of the experiment. All procedures were performed according to the ethical standards of the National Institutes of Health Guide for Animal Welfare and approved by the Institutional Animal Care and Use Committee (EAWE-2017-005).
Peptide toxins in blood and urine samples were analyzed as described previously. Bile samples from Days 0–1, Days 1–2, Days 2–3, and Days 3–4 were collected and stored in medical drainage bags and the bile volume was recorded. Plasma and urine samples were stored at 2–8 °C until analysis for peptide toxins.
UPLC and MS/MS parameters were as described in our previous study. The limit of detection and limit of quantitation of each toxin in the bile were 0.03 mg/kg and 0.5 mg/kg, respectively.
Toxicokinetic parameters were described in our previous study. Measurement data are reported as mean ± standard deviation values and enumeration data are reported as percentage (%). […] SPSS 22.0 (IBM Corporation, Armonk, NY, USA, 2015) was used for statistical analysis. The criterion for statistical significance was p ≤ 0.05. Except for the biliary drainage operation, the animals and methods in our present study are in accordance with our previously published study. Thus, by directly comparing the data from this study with those from our published studies on Amanita exitialis-exposed beagles without biliary drainage, we can evaluate the impact of biliary drainage on the toxicity and toxicokinetics of Amanita exitialis in beagles.

[1] = 0 h after ingestion, 20 mg/kg with biliary drainage group
[2] = 0 h after ingestion, 60 mg/kg with biliary drainage group
[3] = 20 mg/kg Amanita exitialis oral
[4] = 60 mg/kg Amanita exitialis oral
[5] = 0.25 h after ingestion, 20 mg/kg with biliary drainage group
[6] = 0.25 h after ingestion, 60 mg/kg with biliary drainage group
[7] = 0.5 h after ingestion, 20 mg/kg with biliary drainage group
[8] = 0.5 h after ingestion, 60 mg/kg with biliary drainage group
[9] = 1 h after ingestion, 20 mg/kg with biliary drainage group
[10] = 1 h after ingestion, 60 mg/kg with biliary drainage group
[11] = 1.5 h after ingestion, 20 mg/kg with biliary drainage group
[12] = 1.5 h after ingestion, 60 mg/kg with biliary drainage group
[13] = 2 h after ingestion, 20 mg/kg with biliary drainage group
[14] = 2 h after ingestion, 60 mg/kg with biliary drainage group
[15] = 3 h after ingestion, 20 mg/kg with biliary drainage group
[16] = 3 h after ingestion, 60 mg/kg with biliary drainage group
[17] = 4 h after ingestion, 20 mg/kg with biliary drainage group
[18] = 4 h after ingestion, 60 mg/kg with biliary drainage group
[19] = 5 h after ingestion, 20 mg/kg with biliary drainage group
[20] = 5 h after ingestion, 60 mg/kg with biliary drainage group
[21] = 6 h after ingestion, 20 mg/kg with biliary drainage group
[22] = 6 h after ingestion, 60 mg/kg with biliary drainage group
[23] = 8 h after ingestion, 20 mg/kg with biliary drainage group
[24] = 8 h after ingestion, 60 mg/kg with biliary drainage group
[25] = 10 h after ingestion, 20 mg/kg with biliary drainage group
[26] = 10 h after ingestion, 60 mg/kg with biliary drainage group
[27] = 12 h after ingestion, 20 mg/kg with biliary drainage group
[28] = 12 h after ingestion, 60 mg/kg with biliary drainage group
[29] = 24 h after ingestion, 20 mg/kg with biliary drainage group
[30] = 24 h after ingestion, 60 mg/kg with biliary drainage group
[31] = 36 h after ingestion, 20 mg/kg with biliary drainage group
[32] = 36 h after ingestion, 60 mg/kg with biliary drainage group
[33] = 48 h after ingestion, 20 mg/kg with biliary drainage group
[34] = 48 h after ingestion, 60 mg/kg with biliary drainage group

SMILES: CC[C@H](C)[C@@H]1NC(=O)CNC(=O)[C@@H]2Cc3c([nH]c4cc(O)ccc34)[S@+]([O-])C[C@H](NC(=O)CNC1=O)C(=O)N[C@@H](CC(=O)O)C(=O)N1C[C@H](O)C[C@H]1C(=O)N[C@@H]([C@@H](C)[C@@H](O)CO)C(=O)N2 [β-amanitin]
- detection rate of peptide toxins in blood [1]: 0%
- detection rate of peptide toxins in blood [2]: 0%
- T1/2 [3]: 1.29 ± 1.07 h
- AUC (0–∞) [3]: 3.24 ± 1.49 µg·h/L
- CL/F [3]: 0.64 ± 0.42 L/h/kg
- Cmax [3]: 0.85 ± 0.33 µg/L
- Dose normalized AUC (0–∞) [3]: 179 ± 82.4
- Dose normalized Cmax [3]: 57 ± 18.3
- MRT (0–∞) [3]: 3.83 ± 1.02 h
- Tmax [3]: 1.63 ± 0.48 h
- T1/2 [4]: 1.54 ± 0.71 h
- AUC (0–∞) [4]: 15.75 ± 4.27 ^a,b µg/L × h
- CL/F [4]: 0.33 ± 0.09 L/h/kg
- Cmax [4]: 5.18 ± 1.32 ^a,b µg/L
- Dose normalized AUC (0–∞) [4]: 222.3 ± 79.2
- Dose normalized Cmax [4]: 96 ± 24.4
- MRT (0–∞) [4]: 3.89 ± 0.46 h
- Tmax [4]: 1.25 ± 0.29 h
- detection rate of peptide toxins in blood [5]: 0%
- detection rate of peptide toxins in blood [6]: 50%
- detection rate of peptide toxins in blood [7]: 33%
- detection rate of peptide toxins in blood [8]: 66%
- detection rate of peptide toxins in blood [9]: 100%
- detection rate of peptide toxins in blood [10]: 100%
- detection rate of peptide toxins in blood [11]: 100%
- detection rate of peptide toxins in blood [12]: 100%
- detection rate of peptide toxins in blood [13]: 100%
- detection rate of peptide toxins in blood [14]: 100%
- detection rate of peptide toxins in blood [15]: 100%
- detection rate of peptide toxins in blood [16]: 100%
- detection rate of peptide toxins in blood [17]: 100%
- detection rate of peptide toxins in blood [18]: 100%
- detection rate of peptide toxins in blood [19]: 100%
- detection rate of peptide toxins in blood [20]: 100%
- detection rate of peptide toxins in blood [21]: 83%
- detection rate of peptide toxins in blood [22]: 100%
- detection rate of peptide toxins in blood [23]: 83%
- detection rate of peptide toxins in blood [24]: 100%
- detection rate of peptide toxins in blood [25]: 66%
- detection rate of peptide toxins in blood [26]: 100%
- detection rate of peptide toxins in blood [27]: 33%
- detection rate of peptide toxins in blood [28]: 100%
- detection rate of peptide toxins in blood [29]: 0%
- detection rate of peptide toxins in blood [30]: 33%
- detection rate of peptide toxins in blood [31]: 0%
- detection rate of peptide toxins in blood [32]: 0%
- detection rate of peptide toxins in blood [33]: 0%
- detection rate of peptide toxins in blood [34]: 0%
- time at which toxins were detected in plasma after ingestion: 30 min
- Vd/F [3]: 0.78 ± 0.63 L/kg
- Vd/F [4]: 1.38 ± 0.59 L/kg

SMILES: CC(C)[C@@H]1NC(=O)[C@H](C[C@@](C)(O)CO)NC(=O)[C@@H]2Cc3c([nH]c4ccccc34)SC[C@H](NC(=O)[C@@H]([C@H](O)C(=O)O)NC1=O)C(=O)N1C[C@@H](O)C[C@H]1C(=O)N[C@@H](C)C(=O)N2 [phallacidin] (cyclo(A[Trp(2-yl)][Leu(4R-OH,5-OH)]V[dAsp(3S-OH)]C[cisHyp]); thioether 2-6)
- detection rate of peptide toxins in blood [1]: 0%
- detection rate of peptide toxins in blood [2]: 0%
- T1/2 [4]: 0.62 ± 0.32 ^b,* h
- AUC (0–∞) [4]: 2.08 ± 2.06 ^b,* µg/L × h
- CL/F [4]: 1.1 ± 0.86 ^b,* L/h/kg
- Cmax [4]: 0.85 ± 0.37 ^b,* µg/L
- Dose normalized AUC (0–∞) [4]: 60.5 ± 60.2 ^b,*
- Dose normalized Cmax [4]: 24.8 ± 10.8 ^b,*
- MRT (0–∞) [4]: 1.95 ± 0.73 ^b,* h
- Tmax [4]: 1.38 ± 0.25 h
- detection rate of peptide toxins in blood [5]: 0%
- detection rate of peptide toxins in blood [6]: 33%
- detection rate of peptide toxins in blood [7]: 0%
- detection rate of peptide toxins in blood [8]: 33%
- detection rate of peptide toxins in blood [9]: 50%
- detection rate of peptide toxins in blood [10]: 100%
- detection rate of peptide toxins in blood [11]: 66%
- detection rate of peptide toxins in blood [12]: 100%
- detection rate of peptide toxins in blood [13]: 33%
- detection rate of peptide toxins in blood [14]: 100%
- detection rate of peptide toxins in blood [15]: 33%
- detection rate of peptide toxins in blood [16]: 50%
- detection rate of peptide toxins in blood [17]: 17%
- detection rate of peptide toxins in blood [18]: 50%
- detection rate of peptide toxins in blood [19]: 0%
- detection rate of peptide toxins in blood [20]: 33%
- detection rate of peptide toxins in blood [21]: 0%
- detection rate of peptide toxins in blood [22]: 17%
- detection rate of peptide toxins in blood [23]: 0%
- detection rate of peptide toxins in blood [24]: 0%
- detection rate of peptide toxins in blood [25]: 0%
- detection rate of peptide toxins in blood [26]: 0%
- detection rate of peptide toxins in blood [27]: 0%
- detection rate of peptide toxins in blood [28]: 0%
- detection rate of peptide toxins in blood [29]: 0%
- detection rate of peptide toxins in blood [30]: 0%
- detection rate of peptide toxins in blood [31]: 0%
- detection rate of peptide toxins in blood [32]: 0%
- detection rate of peptide toxins in blood [33]: 0%
- detection rate of peptide toxins in blood [34]: 0%
- time at which toxins were detected in plasma after ingestion: 30 min
- Vd/F [4]: 1.77 ± 0.57 L/kg
